Tested on: subjects with TRD
Assay: Adverse events (TEAEs, SAEs) in the TRD study
Format: in vivo, human
Settings: for Number of subjects with TEAE, Mild / Number of subjects with TEAE, Moderate / Number of subjects with TEAE, Severe / Percent of subjects with TEAE, Mild / Percent of subjects with TEAE, Moderate / Percent of subjects with TEAE, Severe: maximum severity
Description: The definitions of an AE and SAE can be found in Section F. AEs were reported by the subject (or, when appropriate, by a caregiver, surrogate, or the subject's legally authorized representative). The Investigator and any designees were responsible for detecting, documenting, and recording events that meet the definition of an AE or SAE and remained responsible for following up AEs that were serious, considered related to the study treatment or study procedures, or that caused the subject to discontinue from the study.
All AEs were collected from the signing of the ICF until the second follow-up visit (Day 15) at the time points specified in the Schedule of Activities (Section C). Medical occurrences that began before the start of study treatment but after obtaining informed consent were recorded on the Medical History/Current Medical Conditions section of the CRF, not the AE section. All SAEs were recorded and reported to the Sponsor or designee within 24 hours as indicated in Section F. The Investigator submitted any updated SAE data to the Sponsor or designee within 24 hours of it being available. Investigators were not obligated to actively seek AE or SAE information after the conclusion of study participation. However, if the Investigator learns of any SAE, including a death, at any time after a subject has been discharged from the study, and he/she considers the event to be reasonably related to the study treatment or study participation, the Investigator must promptly notify the Sponsor or designee. The method of recording, evaluating, and assessing the causality of AEs and SAEs and the procedures for completing and transmitting SAE reports are provided in Section F.
An AE is any untoward medical occurrence in a patient or subject, temporally associated with the use of study treatment, whether or not considered related to the study treatment. An AE can therefore be any unfavorable and unintended sign (including an abnormal laboratory finding), symptom, or disease (new or exacerbated) temporally associated with the use of study treatment.
If an event is not an AE per the definition above, then it cannot be an SAE even if serious conditions are met (e.g., hospitalization for signs/symptoms of the disease under study). A Serious Adverse Event (SAE) is defined as any untoward medical occurrence that, at any dose: a) results in death; b) is life-threatening; c) requires inpatient hospitalization or prolongation of existing hospitalization; d) results in persistent disability/incapacity; or e) is a congenital anomaly/birth defect. The term “life-threatening” in the definition of “serious” refers to an event in which the subject was at risk of death at the time of the event. […] In general, hospitalization signifies that the subject has been detained (usually involving at least an overnight stay) at the hospital or emergency ward for observation and/or treatment that would not have been appropriate in the physician's office or outpatient setting. Complications that occur during hospitalization are AEs. If a complication prolongs hospitalization or fulfills any other serious criteria, the event is serious. When in doubt as to whether “hospitalization” occurred or was necessary, the AE should be considered serious. […] The term disability means a substantial disruption of a person's ability to conduct normal life functions.
(MedDRA; Version 23.0 or higher). Treatment-emergent adverse events (TEAEs) are AEs with onset or worsening after the start of study treatment. The AE summaries will be primarily based on TEAEs. The number and percentage of subjects with TEAEs will be summarized by treatment group, system organ class, and preferred term for all TEAEs, treatment-related TEAEs, SAEs, serious TEAEs, severe TEAEs, TEAEs of special interest, and all TEAEs leading to study drug discontinuation. All TEAEs will be further summarized by maximum severity and causality. The TEAEs of special interest will be identified in the SAP. […]

For `CN[C@@]1(c2ccccc2Cl)CCCCC1=O.Cl` [R(−)-ketamine, (2R)-2-(2-chlorophenyl)-2-(methylamino)cyclohexan-1-one], the “Number of subjects with Any adverse events (AE)” value (30 mg (n = 33)) was 11, the “Number of subjects with Serious TEAEs resulting in treatment discontinuation” value (30 mg (n = 33)) was 0 and the “Number of subjects with TEAE with outcome of death” value (30 mg (n = 33)) was 0. The “Number of subjects with TEAEs of COVID-19” value (30 mg (n = 33)) was 0, the “Number of subjects with TEAEs resulting in discontinuation from study” value (30 mg (n = 33)) was 0 and the “Number of subjects with TEAEs resulting in treatment discontinuation” value (30 mg (n = 33)) was 0. For the same compound, the “Number of subjects with Treatment-emergent SAE, Mild” value (30 mg (n = 33)) was 0, the “Number of subjects with Treatment-emergent SAE, Moderate” value (30 mg (n = 33)) was 0 and the “Number of subjects with Treatment-emergent SAE, Severe” value (30 mg (n = 33)) was 0. For the same compound, the “Number of subjects with Treatment-emergent adverse events (TEAE)” value (30 mg (n = 33)) was 11, the “Number of subjects with Treatment-emergent serious adverse events (SAE)” value (30 mg (n = 33)) was 0 and the “Number of subjects with Treatment-related TEAEs” value (30 mg (n = 33)) was 10. The “Number of subjects with Treatment-related and severe TEAEs” value (30 mg (n = 33)) was 0, the “Number of subjects with Treatment-related treatment-emergent SAEs” value (30 mg (n = 33)) was 0 and the “Percent of subjects with Any adverse events (AE)” value (30 mg (n = 33)) was “(33) %”. The “Percent of subjects with Serious TEAEs resulting in treatment discontinuation” value (30 mg (n = 33)) was “(0) %”, the “Percent of subjects with TEAE with outcome of death” value (30 mg (n = 33)) was “(0) %” and the “Percent of subjects with TEAEs of COVID-19” value (30 mg (n = 33)) was “(0) %”. For the same compound, the “Percent of subjects with TEAEs resulting in discontinuation from study” value (30 mg (n = 33)) was “(0) %”, the “Percent of subjects with TEAEs resulting in treatment discontinuation” value (30 mg (n = 33)) was “(0) %” and the “Percent of subjects with Treatment-emergent SAE, Mild” value (30 mg (n = 33)) was “(0) %”. For the same compound, the “Percent of subjects with Treatment-emergent SAE, Moderate” value (30 mg (n = 33)) was “(0) %”, the “Percent of subjects with Treatment-emergent SAE, Severe” value (30 mg (n = 33)) was “(0) %” and the “Percent of subjects with Treatment-emergent adverse events (TEAE)” value (30 mg (n = 33)) was “(33) %”. For the same compound, the “Percent of subjects with Treatment-emergent serious adverse events (SAE)” value (30 mg (n = 33)) was “(0) %”, the “Percent of subjects with Treatment-related TEAEs” value (30 mg (n = 33)) was “(30) %” and the “Percent of subjects with Treatment-related and severe TEAEs” value (30 mg (n = 33)) was “(0) %”. For the same compound, the “Percent of subjects with Treatment-related treatment-emergent SAEs” value (30 mg (n = 33)) was “(0) %”, the “Number of subjects with TEAE, Mild” value (30 mg (n = 33)) was 7 and the “Number of subjects with TEAE, Moderate” value (30 mg (n = 33)) was 4. The “Number of subjects with TEAE, Severe” value (30 mg (n = 33)) was 0, the “Percent of subjects with TEAE, Mild” value (30 mg (n = 33)) was “(21) %” and the “Percent of subjects with TEAE, Moderate” value (30 mg (n = 33)) was “(12) %”. The “Percent of subjects with TEAE, Severe” value (30 mg (n = 33)) was “(0) %”, the “Serious adverse events (SAEs)” value (30 mg or 60 mg single IV infusion) was “no serious adverse events” and the “Number of subjects with Any adverse events (AE)” value (60 mg (n = 35)) was 19. For the same compound, the “Number of subjects with Serious TEAEs resulting in treatment discontinuation” value (60 mg (n = 35)) was 0, the “Number of subjects with TEAE with outcome of death” value (60 mg (n = 35)) was 0 and the “Number of subjects with TEAEs of COVID-19” value (60 mg (n = 35)) was 0. For the same compound, the “Number of subjects with TEAEs resulting in discontinuation from study” value (60 mg (n = 35)) was 0, the “Number of subjects with TEAEs resulting in treatment discontinuation” value (60 mg (n = 35)) was 0 and the “Number of subjects with Treatment-emergent SAE, Mild” value (60 mg (n = 35)) was 0. The “Number of subjects with Treatment-emergent SAE, Moderate” value (60 mg (n = 35)) was 0, the “Number of subjects with Treatment-emergent SAE, Severe” value (60 mg (n = 35)) was 0 and the “Number of subjects with Treatment-emergent adverse events (TEAE)” value (60 mg (n = 35)) was 18. The “Number of subjects with Treatment-emergent serious adverse events (SAE)” value (60 mg (n = 35)) was 0, the “Number of subjects with Treatment-related TEAEs” value (60 mg (n = 35)) was 16 and the “Number of subjects with Treatment-related and severe TEAEs” value (60 mg (n = 35)) was 2. The “Number of subjects with Treatment-related treatment-emergent SAEs” value (60 mg (n = 35)) was 0, the “Percent of subjects with Any adverse events (AE)” value (60 mg (n = 35)) was “(54) %” and the “Percent of subjects with Serious TEAEs resulting in treatment discontinuation” value (60 mg (n = 35)) was “(0) %”. The “Percent of subjects with TEAE with outcome of death” value (60 mg (n = 35)) was “(0) %”, the “Percent of subjects with TEAEs of COVID-19” value (60 mg (n = 35)) was “(0) %” and the “Percent of subjects with TEAEs resulting in discontinuation from study” value (60 mg (n = 35)) was “(0) %”. The “Percent of subjects with TEAEs resulting in treatment discontinuation” value (60 mg (n = 35)) was “(0) %”, the “Percent of subjects with Treatment-emergent SAE, Mild” value (60 mg (n = 35)) was “(0) %” and the “Percent of subjects with Treatment-emergent SAE, Moderate” value (60 mg (n = 35)) was “(0) %”. For the same compound, the “Percent of subjects with Treatment-emergent SAE, Severe” value (60 mg (n = 35)) was “(0) %”, the “Percent of subjects with Treatment-emergent adverse events (TEAE)” value (60 mg (n = 35)) was “(51) %” and the “Percent of subjects with Treatment-emergent serious adverse events (SAE)” value (60 mg (n = 35)) was “(0) %”. For the same compound, the “Percent of subjects with Treatment-related TEAEs” value (60 mg (n = 35)) was “(46) %”, the “Percent of subjects with Treatment-related and severe TEAEs” value (60 mg (n = 35)) was “(6) %” and the “Percent of subjects with Treatment-related treatment-emergent SAEs” value (60 mg (n = 35)) was “(0) %”. The “Number of subjects with TEAE, Mild” value (60 mg (n = 35)) was 9, the “Number of subjects with TEAE, Moderate” value (60 mg (n = 35)) was 7 and the “Number of subjects with TEAE, Severe” value (60 mg (n = 35)) was 2. The “Percent of subjects with TEAE, Mild” value (60 mg (n = 35)) was “(26) %”, the “Percent of subjects with TEAE, Moderate” value (60 mg (n = 35)) was “(20) %” and the “Percent of subjects with TEAE, Severe” value (60 mg (n = 35)) was “(6) %”.
